# Results published in patent US20210147507A1, “METHODS TO AUGMENT OR ALTER SIGNAL TRANSDUCTION” (Bellicum Pharmaceuticals, Inc., priority 2017, published 2021).
# Read-outs that look alike come from different tables or passages of the source.
# Columns and labels:
# [1] = cited from earlier work; for safety and tolerability (in words): healthy volunteers
# [2] = tested on: CD3+ΔCD19+ iCasp9 T cells / GvHD; assay: Phase I clinical trial of allodepleted T cells transduced with iCasp9 after haploidentical stem cell transplantation; assay type: in vivo, human
# From the text: This example presents results of a phase 1 clinical trial using an alternative suicide gene strategy. Briefly, donor peripheral blood mononuclear cells were co-cultured with recipient irradiated EBV-transformed lymphoblastoid cells (40:1) for 72 hrs., allodepleted with a CD25 immunotoxin and then transduced with a retroviral supernatant carrying the iCasp9 suicide gene and a selection marker (ΔCD19); ΔCD19 allowed enrichment to >90% purity via immunomagnetic selection.
# Patients developing grade 1 GvHD were treated with 0.4 mg/kg AP1903 as a 2-hour infusion.
# Three patients received iCasp9^+ T cells after haplo-CD34^+ stem cell transplantation (SCT), at dose levels between about 1×10^6 to about 3×10^6 cells/kg.
# [3] = tested on: cells; assay: Rimiducid amount needed in vitro for effective signaling of cells; assay type: cell-based
# Procedure: This equates to 14-140 μg/L or ˜0.014-0.14 mg/kg ([…]). The dosage may vary according to the application, and may, in certain examples, be more in the range of 0.1-10 nM, or in the range of 50-150 nM, 10-200 nM, 75-125 nM, 100-500 nM, 100-600 nM, 100-700 nM, 100-800 nM, or 100-900 nM.
# [4] = tested on: HPAC pancreatic cancer cells; assay: T cell anti-tumor assay: PSCA CAR-T cells with iM-X cocultured with HPAC-RFP cells (IncuCyte); assay type: cell-based, human; conditions: 1 nM
# Procedure: The HPAC PSCA^+ tumor cells were stably labeled with nuclear-localized RFP protein using the NucLight™ Red Lentivirus Reagent (Essen Bioscience, 4625). To set up the coculture, 4000 HPAC-RFP cells were seeded per well of 96-well plates in 100 μl of CTL medium without IL-2 for at least 4 hours to allow tumor cells to adhere. After transduction with the appropriate retrovirus and having been allowed to rest for at least 7 days in culture, T were seeded according to various E:T ratios in the HPAC-RFP-containing 96-well plates. […] Each plate was set up in duplicates, one plate to monitor with the IncuCyte and one plate for supernatant collection for ELISA assay on day 2. The plates were centrifuged for 5 min at 400×g and placed inside the IncuCyte (Dual Color Model 4459) to monitor red fluorescence (and green fluorescence if T cells were labeled with GFP-Ffluc) every 2-3 hours for a total of 7 days at 10× objective. Image analysis was performed using the “HPAC-RFP-_TcellsGFP_10×_MLD” processing definition. On day 7, HPAC-RFP cells were analyzed using the “Red Object Count (1/well)” metric. Also on day 7, 0 or 10 nM of suicide drug were added to each well of the coculture and placed back in the IncuCyte to monitor T cell elimination. On day 8, Tcell-GFP cells were analyzed using the “Total Green Object Integrated Intensity” metric. […]
# [5] = biological target: wild-type phenylalanine 36 FKBP12 (Homo sapiens, UniProt P62942); conditions: cited from earlier work
# Sequence of wild-type phenylalanine 36 FKBP12 (P62942 whole entry): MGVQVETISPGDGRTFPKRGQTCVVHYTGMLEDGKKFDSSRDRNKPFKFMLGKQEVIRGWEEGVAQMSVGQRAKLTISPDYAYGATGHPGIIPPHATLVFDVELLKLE
smiles,measurement,setting,value
"CC[C@H](C(=O)N1CCCC[C@H]1C(=O)O[C@H](CCc1ccc(OC)c(OC)c1)c1cccc(OCC(=O)NCCNC(=O)COc2cccc([C@@H](CCc3ccc(OC)c(OC)c3)OC(=O)[C@@H]3CCCCN3C(=O)[C@@H](CC)c3cc(OC)c(OC)c(OC)c3)c2)c1)c1cc(OC)c(OC)c(OC)c1 (relative stereo) [rimiducid, 2-Piperidinecarboxylic acid, 1-[(2S)-1-oxo-2-(3,4,5-trimethoxyphenyl)butyl]-, 1,2-ethanediylbis [imino(2-oxo-2,1-ethanediyl)oxy-3,1-phenylene[(1R)-3-(3,4-Dimethoxyphenyl)propylidene]] ester, [2S-[1(R*),2R*[S*[S*[1(R*),2R1]]]]]-(9C1)]",duration of the adverse event,[1]; 1.0 mg/kg,32 min
same,onset of the adverse event after start of infusion,[1]; 1.0 mg/kg,3 min
same,mean Cmax,"[1]; 0.01-1.0 mg/kg dose range, infused IV over 2 hours",10 to 1275 ng/mL
same,plasma levels versus dose,[1]; 0.01-1.0 mg/kg,directly proportional to dose
same,adverse event considered possibly related,[1]; 1 volunteer at 1.0 mg/kg,vasodilatation
same,"plasma level, % of maximal concentration",[1]; 0.5 hours post-dose,18%
same,"plasma level, % of maximal concentration","[1]; 0.5 hours post-dose, listed as Rimiducid",approximately 18%
same,"plasma level, % of maximal concentration",[1]; 2 hours post-dose,~7%
same,"plasma level, % of maximal concentration",[1]; 10 hours post-dose,~1%
same,well-tolerated dose,[1]; Phase I study,up to 1 mg/kg
same,incidence of adverse events,[1]; following each treatment,very low
same,safety and tolerability (in words),[1]; 0.01-1.0 mg/kg,No significant adverse effects
same,safety and tolerability (in words),"[1]; 0.01-1.0 mg/kg, listed as AP1903",No serious adverse events
same,pharmacokinetic profile (in words),"[1]; human, in vivo",favorable pharmacokinetic profile
same,time to resolution of skin and liver GvHD,[2]; after rimiducid administration,≤ 24 h
same,ablation of CD3+ΔCD19+ cells,"[2]; within 30 minutes of infusion, two patients with grade I/II GvHD",> 90%
same,further reduction of CD3+ΔCD19+ cells,[2]; within 24 hours,further log reduction
same,"amount needed for effective signaling, converted",[3],0.014 to 0.14 mg/kg
same,amount needed in vitro for effective signaling of cells,[3],10 to 100 nM
same,"amount needed for effective signaling, converted",[3]; MW 1412 Da,14 to 140 µg/L
same,effect on cell growth of tumor or T cell,[4]; Not Transduced (NT) primary T cells,did not affect the cell growth
same,effect on T cell efficacy,[4]; T cells expressing the inducible chimeric signaling polypeptide,augmented T cell efficacy
same,binding to FKBP12 (in words),[5],not able to bind
